Structures can show the parent of a compound that is named as a salt. Where two headings read alike, the source gives them in different places.
How the values were obtained:
RET kinase = RET kinase (Homo sapiens, UniProt P07949, C634W); assay: RET kinase cell-based mechanistic assay (constitutive RET kinase phosphorylation in TT cells)
Procedure: RET Kinase Cell-Based Mechanistic Assay
The potency of the compound of the invention was tested for its ability to inhibit constitutive RET kinase phosphorylation in cell-based assay. […] 1.0E5 TT cells/well were plated in a 96-well cell culture plate and allowed to adhere overnight. […] IC50s were fitted using GraphPad Prism to a sigmoidal dose response.

TT cells = assay: RET kinase cell-based proliferation assay; parameters: species or system human; details: 192 h, read-out: RET IC50
Text: RET Kinase Cell-Based Proliferation Assay

[1] = human RET kinase cell-based proliferation assay, TT cells, eight days, CellTiter-Glo, Table 4

Sequence of RET kinase (P07949 29-1114 C634W): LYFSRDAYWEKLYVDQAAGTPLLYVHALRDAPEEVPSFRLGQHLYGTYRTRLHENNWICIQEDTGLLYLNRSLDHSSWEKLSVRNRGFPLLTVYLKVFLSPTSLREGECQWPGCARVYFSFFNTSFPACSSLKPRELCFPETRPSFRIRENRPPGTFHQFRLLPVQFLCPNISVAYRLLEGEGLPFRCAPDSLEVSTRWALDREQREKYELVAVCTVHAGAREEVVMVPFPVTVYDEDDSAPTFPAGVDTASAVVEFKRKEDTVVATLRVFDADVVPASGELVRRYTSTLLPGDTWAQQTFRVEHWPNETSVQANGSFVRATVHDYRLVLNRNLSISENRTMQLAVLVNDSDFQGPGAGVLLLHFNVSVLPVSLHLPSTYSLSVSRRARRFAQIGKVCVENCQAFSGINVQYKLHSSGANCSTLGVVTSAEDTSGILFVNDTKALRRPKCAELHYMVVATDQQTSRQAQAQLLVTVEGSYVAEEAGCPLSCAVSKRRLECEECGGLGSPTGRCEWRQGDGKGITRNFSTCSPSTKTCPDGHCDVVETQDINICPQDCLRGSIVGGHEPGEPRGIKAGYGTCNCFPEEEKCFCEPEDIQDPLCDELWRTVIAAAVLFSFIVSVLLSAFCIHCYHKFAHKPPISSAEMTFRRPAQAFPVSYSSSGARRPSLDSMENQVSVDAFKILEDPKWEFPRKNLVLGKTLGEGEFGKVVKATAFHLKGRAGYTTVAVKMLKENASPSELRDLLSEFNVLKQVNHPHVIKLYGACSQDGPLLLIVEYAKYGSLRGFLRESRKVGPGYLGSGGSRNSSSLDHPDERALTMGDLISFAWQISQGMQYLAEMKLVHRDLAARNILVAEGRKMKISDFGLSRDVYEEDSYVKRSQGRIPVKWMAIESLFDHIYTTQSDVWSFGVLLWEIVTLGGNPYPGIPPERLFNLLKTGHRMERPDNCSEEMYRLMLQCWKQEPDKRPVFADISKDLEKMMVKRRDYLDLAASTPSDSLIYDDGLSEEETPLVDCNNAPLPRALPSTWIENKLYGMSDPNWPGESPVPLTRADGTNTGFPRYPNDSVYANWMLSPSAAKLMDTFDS

CCOc1cc(-c2ccc(CC(=O)Nc3cnc(C(C)(C)O)c(C(F)(F)F)c3)c(F)c2)c[nH]c1=O [Example 1, 2-(4-(5-Ethoxy-6-oxo-1,6-dihydropyridin-3-yl)-2-fluorophenyl)-N-(6-(2-hydroxypropan-2-yl)-5-(trifluoromethyl)pyridin-3-yl)acetamide]
IC50 (RET kinase): 100 to 500 nM | IC50 (TT cells; [1]): 100 to 500 nM

CCOc1ncc(NC(=O)Cc2ccc(-c3c[nH]c(=O)c(OCC)c3)cc2F)cc1C(F)(F)F [Example 2, N-(6-Ethoxy-5-(trifluoromethyl)pyridin-3-yl)-2-(4-(5-ethoxy-6-oxo-1,6-dihydropyridin-3-yl)-2-fluorophenyl)acetamide, Hydrochloride]
IC50 (RET kinase): < 100 nM | IC50 (TT cells; Homo sapiens, TT): 100 to 500 nM

CCOc1cc(-c2ccc(CC(=O)Nc3ccc(CC(C)(C)CO)c(C(F)(F)F)c3)c(F)c2)c[nH]c1=O [Example 5, 2-(4-(5-Ethoxy-6-oxo-1,6-dihydropyridin-3-yl)-2-fluorophenyl)-N-(4-(3-hydroxy-2,2-dimethylpropyl)-3-(trifluoromethyl)phenyl)acetamide]
IC50 (RET kinase): < 100 nM | IC50 (TT cells; [1]): < 100 nM

CCOc1cc(-c2ccc(CC(=O)Nc3ccc(CC(C)(C)CO)c(C(F)(F)F)c3)cc2F)c[nH]c1=O [Example 6, 2-(4-(5-Ethoxy-6-oxo-1,6-dihydropyridin-3-yl)-3-fluorophenyl)-N-(4-(3-hydroxy-2,2-dimethylpropyl)-3-(trifluoromethyl)phenyl)acetamide]
IC50 (RET kinase): < 100 nM | IC50 (TT cells; [1]): < 100 nM

CCOc1cc(=O)[nH]cc1-c1ccc(CC(=O)Nc2ccc(C#N)c(C(F)(F)F)c2)cc1F [Example 7, N-(4-Cyano-3-(trifluoromethyl)phenyl)-2-(4-(4-ethoxy-6-oxo-1,6-dihydropyridin-3-yl)-3-fluorophenyl)acetamide]
IC50 (RET kinase): 100 to 500 nM | IC50 (TT cells; [1]): 100 to 500 nM

CCOc1cc(-c2ccc(CC(=O)Nc3ccc(C#N)c(C(F)(F)F)c3)c(F)c2)c[nH]c1=O [Example 9, N-(4-Cyano-3-(trifluoro-methyl)phenyl)-2-(4-(5-ethoxy-6-oxo-1,6-dihydro-pyridin-3-yl)-2-fluorophenyl)acetamide]
IC50 (RET kinase): 100 to 500 nM | IC50 (TT cells; [1]): 100 to 500 nM

CCOc1cc(-c2ccc(CC(=O)Nc3cc(-n4cnc(C)c4)cc(C(F)(F)F)c3)c(F)c2)c[nH]c1=O [Example 11, 2-(4-(5-Ethoxy-6-oxo-1,6-dihydropyridin-3-yl)-2-fluorophenyl)-N-(3-(4-methyl-1H-imidazol-1-yl)-5-(trifluoromethyl)phenyl)acetamide, Hydrochloride]
IC50 (RET kinase): < 100 nM | IC50 (TT cells; Homo sapiens, TT): 100 to 500 nM

CCOc1cc(-c2ccc(CC(=O)Nc3ccc(OCCO)c(C(F)(F)F)c3)c(F)c2)c[nH]c1=O [Example 13, 2-(4-(5-Ethoxy-6-oxo-1,6-dihydropyridin-3-yl)-2-fluorophenyl)-N-(4-(2-hydroxyethoxy)-3-(trifluoromethyl)phenyl)acetamide]
IC50 (RET kinase): 100 to 500 nM | IC50 (TT cells; [1]): 100 to 500 nM

CCOc1cc(-c2ccc(CC(=O)Nc3ccc(Cl)c(C(F)(F)F)c3)c(F)c2)c[nH]c1=O [Example 16, N-(4-Chloro-3-(trifluoromethyl)phenyl)-2-(4-(5-ethoxy-6-oxo-1,6-dihydropyridin-3-yl)-2-fluorophenyl)acetamide]
IC50 (RET kinase): 100 to 500 nM | IC50 (TT cells; [1]): < 100 nM

CCOc1cc(-c2ccc(CC(=O)Nc3ccc(CN(C)C)c(C(F)(F)F)c3)c(F)c2)c[nH]c1=O [Example 17, N-(4-((Dimethylamino)methyl)-3-(trifluoromethyl)phenyl)-2-(4-(5-ethoxy-6-oxo-1,6-dihydropyridin-3-yl)-2-fluorophenyl)acetamide, Hydrochloride]
IC50 (RET kinase): < 100 nM | IC50 (TT cells; Homo sapiens, TT): 100 to 500 nM

CCOc1cc(-c2ccc(CC(=O)Nc3ccc(Cl)c(Cl)c3)c(F)c2)c[nH]c1=O [Example 18, N-(3,4-Dichlorophenyl)-2-(4-(5-ethoxy-6-oxo-1,6-dihydropyridin-3-yl)-2-fluorophenyl)acetamide]
IC50 (RET kinase): 500 to 10000 nM | IC50 (TT cells; [1]): 500 to 10000 nM

CCOc1cc(-c2ccc(CC(=O)Nc3cc(C(C)(C)C(F)(F)F)on3)c(F)c2)c[nH]c1=O [Example 19, 2-(4-(5-Ethoxy-6-oxo-1,6-dihydropyridin-3-yl)-2-fluorophenyl)-N-(5-(1,1,1-trifluoro-2-methylpropan-2-yl)isoxazol-3-yl)acetamide]
IC50 (RET kinase): < 100 nM | IC50 (TT cells; [1]): < 100 nM

CCOc1cc(-c2ccc(CC(=O)Nc3ccc(CN4CCN(CC)CC4)c(C(F)(F)F)c3)c(F)c2)c[nH]c1=O [Example 21, 2-(4-(5-Ethoxy-6-oxo-1,6-dihydropyridin-3-yl)-2-fluorophenyl)-N-(4-((4-ethylpiperazin-1-yl)methyl)-3-(trifluoromethyl)phenyl)acetamide, 2 Hydrochloride]
IC50 (TT cells; [1]): < 100 nM

CCOc1cc(-c2ccc(CC(=O)Nc3ccc(C(N)=O)c(C(F)(F)F)c3)c(F)c2)c[nH]c1=O [Example 23, 4-(2-(4-(5-ethoxy-6-oxo-1,6-dihydropyridin-3-yl)-2-fluorophenyl)acetamido)-2-(trifluoromethyl)benzamide]
IC50 (RET kinase): 500 to 10000 nM | IC50 (TT cells; [1]): 500 to 10000 nM

CCOc1cc(-c2ccc(CC(=O)Nc3cc(C(F)(F)F)c(F)cc3F)c(F)c2)c[nH]c1=O [Example 24, N-(2,4-difluoro-5-(trifluoromethyl)phenyl)-2-(4-(5-ethoxy-6-oxo-1,6-dihydropyridin-3-yl)-2-fluorophenyl)acetamide]
IC50 (RET kinase): 100 to 500 nM | IC50 (TT cells; [1]): 500 to 10000 nM

CCOc1cc(-c2ccc(CC(=O)Nc3cc(C(F)(F)F)cc(C(F)(F)F)c3)c(F)c2)c[nH]c1=O [Example 25, N-(3,5-bis(trifluoromethyl)phenyl)-2-(4-(5-ethoxy-6-oxo-1,6-dihydropyridin-3-yl)-2-fluorophenyl)acetamide]
IC50 (RET kinase): 100 to 500 nM | IC50 (TT cells; [1]): 500 to 10000 nM

CCOc1cc(-c2ccc(CC(=O)Nc3cc(C(F)(F)F)ccc3F)c(F)c2)c[nH]c1=O [Example 26, 2-(4-(5-ethoxy-6-oxo-1,6-dihydropyridin-3-yl)-2-fluorophenyl)-N-(2-fluoro-5-(trifluoromethyl)phenyl)acetamide]
IC50 (TT cells; [1]): 500 to 10000 nM

Source: US8937071B2, “Compounds as rearranged during transfection (RET) inhibitors” (GlaxoSmithKline Intellectual Property Development Limited, priority 2013, dated 2015)
